Data taken from PubChem BioAssay (NCI).
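Cells were grown in 96-well plates and exposed to each compound for 48 hours at five concentrations; endpoints were interpolated linearly between bracketing concentrations, or set to the highest concentration if not reached. The concentration for 50% growth inhibition is given as GI50. TGI marks complete inhibition of growth.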

Legend:
Test in all cases: NCI-60 cell line screen, 48 h
OVCAR-5 ovarian = system: OVCAR-5 ovarian
HCT-15 colon = system: HCT-15 colon
TK-10 renal = system: TK-10 renal
BT-549 breast = system: BT-549 breast
786-0 renal = system: 786-0 renal
U251 CNS = system: U251 CNS
MDA-MB-468 breast = system: MDA-MB-468 breast
A498 renal = system: A498 renal
SK-MEL-28 melanoma = system: SK-MEL-28 melanoma
MALME-3M melanoma = system: MALME-3M melanoma
CAKI-1 renal = system: CAKI-1 renal
SF-268 CNS = system: SF-268 CNS
NCI-H226 lung = system: NCI-H226 lung
CCRF-CEM leukemia = system: CCRF-CEM leukemia
HCT-116 colon = system: HCT-116 colon
HS 578T breast = system: HS 578T breast
OVCAR-4 ovarian = system: OVCAR-4 ovarian
OVCAR-8 ovarian = system: OVCAR-8 ovarian
NCI-H460 lung = system: NCI-H460 lung
NCI/ADR-RES ovarian = system: NCI/ADR-RES ovarian
IGROV1 ovarian = system: IGROV1 ovarian
UO-31 renal = system: UO-31 renal
MOLT-4 leukemia = system: MOLT-4 leukemia
SF-539 CNS = system: SF-539 CNS
SF-295 CNS = system: SF-295 CNS
SK-OV-3 ovarian = system: SK-OV-3 ovarian
SR leukemia = system: SR leukemia
NCI-H522 lung = system: NCI-H522 lung
KM12 colon = system: KM12 colon
T-47D breast = system: T-47D breast
HOP-62 NSCLC = system: HOP-62 NSCLC
HCC-2998 colon = system: HCC-2998 colon
HOP-92 NSCLC = system: HOP-92 NSCLC
SNB-19 CNS = system: SNB-19 CNS
MCF7 breast = system: MCF7 breast
RPMI-8226 leukemia = system: RPMI-8226 leukemia
RXF 393 renal = system: RXF 393 renal
UACC-62 melanoma = system: UACC-62 melanoma
MDA-MB-231 breast = system: MDA-MB-231 breast
PC-3 prostate = system: PC-3 prostate
ACHN renal = system: ACHN renal

In the case of `O=C(Nc1ccc(C(F)(F)F)cc1)Nc1ccc2oc(=O)ccc2c1`, the GI50 (OVCAR-5 ovarian) is reported as > 100 µM, the TGI (OVCAR-5 ovarian) is reported as > 100 µM and the GI50 (HCT-15 colon) is reported as 2.91 µM. The TGI (HCT-15 colon) was > 100 µM, the GI50 (TK-10 renal) was > 100 µM and the TGI (TK-10 renal) was > 100 µM. The GI50 (BT-549 breast) was 3.4 µM, the TGI (BT-549 breast) was > 100 µM and the GI50 (786-0 renal) was 19.3 µM. For the same molecule, the TGI (786-0 renal) was > 100 µM, the GI50 (U251 CNS) was 4.34 µM and the TGI (U251 CNS) was > 100 µM. The GI50 (MDA-MB-468 breast) was 2.97 µM, the TGI (MDA-MB-468 breast) was > 100 µM and the GI50 (A498 renal) was > 100 µM. For the same molecule, the TGI (A498 renal) was > 100 µM, the GI50 (SK-MEL-28 melanoma) was > 100 µM and the TGI (SK-MEL-28 melanoma) was > 100 µM. For the same molecule, the GI50 (MALME-3M melanoma) was 4.87 µM, the TGI (MALME-3M melanoma) was > 100 µM and the GI50 (CAKI-1 renal) was 2.58 µM. For the same molecule, the TGI (CAKI-1 renal) was > 100 µM, the GI50 (SF-268 CNS) was 18.6 µM and the TGI (SF-268 CNS) was > 100 µM. The GI50 (NCI-H226 lung) was 3.67 µM, the TGI (NCI-H226 lung) was > 100 µM and the GI50 (CCRF-CEM leukemia) was 3.2 µM. For the same molecule, the TGI (CCRF-CEM leukemia) was > 100 µM, the GI50 (HCT-116 colon) was 2.95 µM and the TGI (HCT-116 colon) was > 100 µM. The GI50 (HS 578T breast) was 16.7 µM, the TGI (HS 578T breast) was > 100 µM and the GI50 (OVCAR-4 ovarian) was 5.4 µM. The TGI (OVCAR-4 ovarian) was > 100 µM, the GI50 (OVCAR-8 ovarian) was 5.93 µM and the TGI (OVCAR-8 ovarian) was > 100 µM. The GI50 (NCI-H460 lung) was 4.17 µM, the TGI (NCI-H460 lung) was > 100 µM and the GI50 (NCI/ADR-RES ovarian) was 3.86 µM. For the same molecule, the TGI (NCI/ADR-RES ovarian) was > 100 µM, the GI50 (IGROV1 ovarian) was 3.55 µM and the TGI (IGROV1 ovarian) was > 100 µM. For the same molecule, the GI50 (UO-31 renal) was 2.14 µM, the TGI (UO-31 renal) was > 100 µM and the GI50 (MOLT-4 leukemia) was 2.86 µM. For the same molecule, the TGI (MOLT-4 leukemia) was > 100 µM, the GI50 (SF-539 CNS) was 5.81 µM and the TGI (SF-539 CNS) was > 100 µM. The GI50 (SF-295 CNS) was 2.63 µM, the TGI (SF-295 CNS) was > 100 µM and the GI50 (SK-OV-3 ovarian) was 91.4 µM. For the same molecule, the TGI (SK-OV-3 ovarian) was > 100 µM, the GI50 (SR leukemia) was 3.86 µM and the TGI (SR leukemia) was > 100 µM. The GI50 (NCI-H522 lung) was 2.8 µM, the TGI (NCI-H522 lung) was > 100 µM and the GI50 (KM12 colon) was 3.51 µM. The TGI (KM12 colon) was > 100 µM, the GI50 (T-47D breast) was 2.85 µM and the TGI (T-47D breast) was > 100 µM. The GI50 (HOP-62 NSCLC) was 9.77 µM, the TGI (HOP-62 NSCLC) was > 100 µM and the GI50 (HCC-2998 colon) was 3.51 µM. For the same molecule, the TGI (HCC-2998 colon) was > 100 µM, the GI50 (HOP-92 NSCLC) was 1.49 µM and the TGI (HOP-92 NSCLC) was 5.73 µM. For the same molecule, the GI50 (SNB-19 CNS) was 4.37 µM, the TGI (SNB-19 CNS) was > 100 µM and the GI50 (MCF7 breast) was 2.48 µM. The TGI (MCF7 breast) was > 100 µM, the GI50 (RPMI-8226 leukemia) was 2.04 µM and the TGI (RPMI-8226 leukemia) was 5.87 µM. For the same molecule, the GI50 (RXF 393 renal) was 18.2 µM, the TGI (RXF 393 renal) was > 100 µM and the GI50 (UACC-62 melanoma) was 5.76 µM. For the same molecule, the TGI (UACC-62 melanoma) was > 100 µM, the GI50 (MDA-MB-231 breast) was 11.7 µM and the TGI (MDA-MB-231 breast) was > 100 µM. The GI50 (PC-3 prostate) was 2.34 µM, the TGI (PC-3 prostate) was > 100 µM and the GI50 (ACHN renal) was 2.7 µM. For the same molecule, the TGI (ACHN renal) was > 100 µM.
